From paper PMC6886523 (Nature chemical biology, 2017)
Converted amounts (≈) assume the structure as drawn.

What was measured:
TrpAB = TrpAB (Mycobacterium tuberculosis, UniProt P9WFX9+P9WFY1); assay type: biochemical
GAPDH = GAPDH counter-check in coupled fluorescence assay; conditions: fluorescence assay conditions
M. marinum = test: Zebrafish embryo infection, wild-type M. marinum; assay type: in vivo, Danio rerio (zebrafish); conditions: after 5 d of treatment
Mtb TrpAB [1] = target: T1, Mtb TrpAB (Mycobacterium tuberculosis, UniProt P9WFX9+P9WFY1); assay type: biochemical
T1 sequence (P9WFY1 whole entry): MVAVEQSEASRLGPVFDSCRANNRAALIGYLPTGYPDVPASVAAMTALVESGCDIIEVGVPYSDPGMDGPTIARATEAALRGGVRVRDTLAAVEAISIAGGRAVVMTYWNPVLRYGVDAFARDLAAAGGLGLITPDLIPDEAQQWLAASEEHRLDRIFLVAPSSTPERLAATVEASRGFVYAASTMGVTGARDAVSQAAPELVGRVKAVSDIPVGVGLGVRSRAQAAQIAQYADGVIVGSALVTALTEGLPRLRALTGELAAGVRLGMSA
T1 sequence (P9WFX9 12-421): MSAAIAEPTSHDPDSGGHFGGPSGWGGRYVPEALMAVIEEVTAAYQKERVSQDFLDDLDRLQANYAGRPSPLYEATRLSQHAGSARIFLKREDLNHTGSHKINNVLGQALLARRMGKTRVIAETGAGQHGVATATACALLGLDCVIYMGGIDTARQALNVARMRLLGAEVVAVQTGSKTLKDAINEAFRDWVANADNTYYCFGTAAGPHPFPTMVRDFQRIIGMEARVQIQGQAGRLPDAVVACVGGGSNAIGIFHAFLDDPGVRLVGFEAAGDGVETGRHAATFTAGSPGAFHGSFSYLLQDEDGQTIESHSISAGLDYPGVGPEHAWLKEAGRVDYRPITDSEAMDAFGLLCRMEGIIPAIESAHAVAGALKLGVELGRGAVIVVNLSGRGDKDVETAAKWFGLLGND

Mtb [2] = test: microbe, parasite or virus in culture; assay type: cell-based
Mtb [3] = assay type: cell-based, Mycobacterium tuberculosis
Mtb TrpAB [4] = target: T1, Mtb TrpAB; assay type: binding
Mtb in J774 macrophages = assay type: cell-based; conditions: day 3 CFU/day 0 CFU
in vitro [5] = conditions: mouse, microsomes
Mtb TrpAB [6] = target: T1, Mtb TrpAB
[7] = test system: panel of Gram-negative and Gram-positive bacterial species; assay type: cell-based
[8] = ref PubChem compound ID 54650477; cited from earlier work
Mtb TrpAB [9] = target: T1, Mtb TrpAB; assay type: biochemical; remark: listed apart in the source
in vitro [10] = conditions: mouse, hepatocytes

Sequence of TrpAB (P9WFX9 12-421): as above
Sequence of TrpAB (P9WFY1 whole entry): as the sequence (P9WFY1 whole entry) above

N#C[C@@H]1N[C@@H](CO)[C@H]1c1ccc(-c2ccccc2F)cc1 [BRD4592, (2R,3S,4R)-3-(2′-fluoro-[1,1′-biphenyl]-4-yl)-4-(hydroxymethyl)azetidine-2-carbonitrile]
reversibility of inhibition (TrpAB): reversible inhibitor
inhibition of GAPDH activity (GAPDH): not found to inhibit
restriction of M. marinum growth in zebrafish embryos compared to DMSO (M. marinum): ~ 1.5 logs
initial inhibition of the α-reaction (Mtb TrpAB [1]): more than 200 fold
kcat^α under saturating compound (Mtb TrpAB [1]): 0.0013 ± 0.00017 s⁻¹
mode of inhibition versus IGP (Mtb TrpAB [1]): uncompetitive
mode of inhibition versus L-Ser (Mtb TrpAB [1]): mixed-type inhibitor
α value (mixed-type inhibition) (Mtb TrpAB [1]): 0.81 ± 0.06
α values (mixed model) (Mtb TrpAB [1]): < 0.00001
effect of L-Trp addition to growth medium on lethal effects (Mtb [2]; 1 mM L-Trp supplementation): rescued
MIC90 (Mtb [2]; Mycobacterium tuberculosis, read-out: MIC90 (minimal concentration needed to inhibit 90% of bacterial growth)): 3 µM (≈ 0.847 µg/mL)
activity among the stereoisomers of the azetidine (Mtb [2]; three stereogenic centers, eight stereoisomeric forms): only the BRD4592 stereoisomer was active
reduction of colony-forming units (CFUs) of Mtb cultures (Mtb [3]): 2–3 logs
increase in affinity of TrpAB for L-Trp (Mtb TrpAB [4]): 4.5 fold
restriction of Mtb growth in macrophages compared to DMSO (Mtb in J774 macrophages): eight-fold
microsomal CLint at 1 μM (in vitro [5]): 336 µL/min/mg
Tm of TrpAB with compound (Mtb TrpAB [6]): 81.6 ± 0.2 °C
increase of Tm of TrpAB in active β^C conformation (Mtb TrpAB [6]): 8 °C
stabilization of the open conformation (Mtb TrpAB [6]): did not stabilize
spectrum of activity against bacterial species [7]: active against several mycobacterial species but not other bacteria tested
activity in 36 screens reported in PubChem [8]: no activity
initial inhibition of the β-reaction (Mtb TrpAB [9]): more than 200 fold
kcat^β under saturating compound (Mtb TrpAB [9]): 0.00433 ± 0.00017 s⁻¹
mode of inhibition with respect to indole (Mtb TrpAB [9]): uncompetitive
rate of L-Trp production slower than uninhibited enzyme (Mtb TrpAB [9]): 750 times
hepatocyte CLint at 1 μM (in vitro [10]): 47.2 µL/min/1e6 cells
